Measurements: patent publication US20040180908A1, “Adenosine derivative in polymorph ii form” (priority 2001, published 2004)

Test: stability of the polymorph at elevated temperatures
Format: physicochemical
Conditions: for example in excess of 70° C.

CC(C)(C)c1nnc([C@H]2O[C@@H](n3cnc4c(Nc5ccc(Cl)cc5F)ncnc43)[C@H](O)[C@@H]2O)o1 [Polymorph II, (2S,3S,4R,5R)-2-(5-tert-butyl-[1,3,4]-oxadiazol-2-yl)-5-[6-(4-chloro-2-fluorophenylamino)-9H-purin-9-yl]-tetrahydrofuran-3,4-diol]
stability at elevated temperatures: particular stability at elevated temperatures
